Earlier results, collected in patent publication US20120070472A1, “CHRONOTHERAPEUTIC COMPOSITIONS AND METHODS OF THEIR USE” (Circ Pharma Research & Development Limited, priority 2004, published 2012).

Conditions: i/v

SMILES	Elimination Half-Life [h]
COc1ccccc1OCCNCC(O)COc1cccc2[nH]c3ccccc3c12 (stereo not drawn) [Carvedilol]	2.4

Same assay, conditions: in vivo

SMILES	Elimination Half-Life [h]
CCCC(=O)Nc1ccc(OCC(O)CNC(C)C)c(C(C)=O)c1 (stereo not drawn) [Acebutolol]	2.7
C=CCc1ccccc1OCC(O)CNC(C)C (stereo not drawn) [Alprenolol]	2.5
NS(=O)(=O)c1cc2c(cc1Cl)N=CNS2(=O)=O [Chlorothiazide]	1.5
COc1ccc([C@@H]2Sc3ccccc3N(CCN(C)C)C(=O)[C@@H]2OC(C)=O)cc1 [Diltiazem]	3.7
CC(C)N(CCC(C(N)=O)(c1ccccc1)c1ccccn1)C(C)C (stereo not drawn) [Disopyramide]	6.0
NNc1nncc2ccccc12 [Hydralazine]	1.0
NS(=O)(=O)c1cc2c(cc1Cl)NCNS2(=O)=O [Hydrochlorothiazide]	2.5
COC(=O)C1=C(C)NC(C)=C(C(=O)OC(C)C)C1c1cccc2nonc12 (stereo not drawn) [Isradipine]	3.8
CC(CCc1ccccc1)NCC(O)c1ccc(O)c(C(N)=O)c1 (stereo not drawn) [Labetalol]	4.9
O=C(NCCO[N+](=O)[O-])c1cccnc1 [Nicorandil]	1.1
C=CCOc1ccccc1OCC(O)CNC(C)C (stereo not drawn) [Oxprenolol]	2.5
CC(C)NCC(O)COc1cccc2[nH]ccc12 (stereo not drawn) [Pindolol]	3.6
CC(C)NCC(O)COc1cccc2ccccc12 (stereo not drawn) [Propranolol]	3.9
CC(=O)S[C@@H]1CC2=CC(=O)CC[C@]2(C)[C@H]2CC[C@@]3(C)[C@@H](CC[C@@]34CCC(=O)O4)[C@H]12 [Spironolactone]	1.6
CC(C)(C)NC[C@H](O)COc1nsnc1N1CCOCC1 [Timolol]	4.1
CCN(CC)CCNC(=O)c1ccc(NC(C)=O)cc1 [n-Acetylprocainamide]	6.0

Same assay, conditions: po

SMILES	Elimination Half-Life [h]
COc1ccccc1OCCNCC(O)COc1cccc2[nH]c3ccccc3c12 (stereo not drawn) [Carvedilol]	6.4
